# Where two headings read alike, the source gives them in different places.
# Columns and labels:
# [1] = test system: CRAB C5; assay: MIC, broth dilution; type: cell-based, carbapenem-resistant A. baumannii; conditions: read-out: Minimal Inhibitory Concentration (MIC)
# Source text: (§1) Escherichia coli KCTC 1682 was obtained from the Korean Collection for Type Cultures (KCTC) (Jeongeup-si, Korea), Acinetobacter baumannii KCCM 40203, Pseudomonas aeruginosa KCCM 11328 from the Korea Culture Center of Microorganisms (KCCM) (Seoul, Korea). Klebsiella pneumoniae NCCP 16054 were obtained from the National Culture Collection for Pathogens (NCCP) (Osong, Korea). Additionally, two carbapenem-resistant E. coli (CREC E1 and E2), 11 carbapenem-resistant A. baumannii (CRAB C0–C10) and two carbapenem-resistant K. pneumoniae (CRKP K1 and K2) were isolated from the patients, who presented symptoms and signs of infection at Korea University Anam Hospital (Seoul, Korea) (IRB registration no. 2020AN0157, 4 March 2021). CRAB C0–C10 have the OXA-23 gene with carbapenem-resistance.
# (§2) The minimum inhibitory concentrations (MIC) were determined using broth dilution method. Briefly, all the mentioned bacterial strains were grown overnight at 37 °C by Muller–Hinton (MH) media. […] After 16 h incubation, the bacterial growth was read at 600 nm using a SpectraMAX microplate reader (Molecular Devices, San Jose, CA, USA).
# [2] = test system: CRAB C6; assay: MIC, broth dilution; type: cell-based, carbapenem-resistant A. baumannii; conditions: read-out: Minimal Inhibitory Concentration (MIC)
# Source text: as §1, §2
# [3] = test system: CRAB C3; assay: MIC, broth dilution; type: cell-based, carbapenem-resistant A. baumannii; conditions: read-out: Minimal Inhibitory Concentration (MIC)
# Source text: as §1, §2
# [4] = test system: CRAB C10; assay: MIC, broth dilution; type: cell-based, carbapenem-resistant A. baumannii; conditions: read-out: Minimal Inhibitory Concentration (MIC)
# Source text: as §1, §2
# [5] = test system: CRAB C0; assay: MIC, broth dilution; type: cell-based, carbapenem-resistant A. baumannii; conditions: read-out: Minimal Inhibitory Concentration (MIC)
# Source text: as §1, §2
# [6] = test system: CRAB C9; assay: MIC, broth dilution; type: cell-based, carbapenem-resistant A. baumannii; conditions: read-out: Minimal Inhibitory Concentration (MIC)
# Source text: as §1, §2
# [7] = test system: CRAB C4; assay: MIC, broth dilution; type: cell-based, carbapenem-resistant A. baumannii; conditions: read-out: Minimal Inhibitory Concentration (MIC)
# Source text: as §1, §2
# [8] = test system: CRAB C7; assay: MIC, broth dilution; type: cell-based, carbapenem-resistant A. baumannii; conditions: read-out: Minimal Inhibitory Concentration (MIC)
# Source text: as §1, §2
# [9] = test system: CRAB C2; assay: MIC, broth dilution; type: cell-based, carbapenem-resistant A. baumannii; conditions: read-out: Minimal Inhibitory Concentration (MIC)
# Source text: as §1, §2
# [10] = test system: CRAB C0; assay: Biofilm assay, crystal violet staining; type: cell-based, carbapenem-resistant A. baumannii; conditions: 16 h
# Protocol: Figure 4 Pro9-3 and its analogs have biofilm inhibition properties against CRAB. The antibiofilm activities of peptides (0–32 μM, 16 h) on (A) A. baumannii and (B) CRAB C0 strains were measured by crystal violet staining and the number of attached cells were read at 595 nm. Melittin, meropenem and imipenem were used as a control. Data are shown as the mean ± SEM (n = 3) and are statistically significant at * p < 0.05; *** p < 0.001; ns, not significant (two-way analysis of variance (ANOVA) with Dunnett’s comparison test).
# The effects of peptides on biofilm inhibition of A. baumannii and CRAB C0 strains were performed as described previously. […] After treatment, bacterial cells were fixed with methanol (100%, 15 min) followed by crystal violet staining (0.1% (w/v) in 0.25% (v/v) acetic acid for 1 h). The plates were washed with distilled H2O, allowed to dry, and dissolved in ethanol (100% v/v). The color development representing the degree of biofilm was measured at 595 nm.
# [11] = test system: standard Gram-negative bacteria and carbapenem-resistant Gram-negative bacteria; assay: Mean MIC over all bacterial strains (GM) and selective index; type: cell-based; conditions: read-out: GM (geometric mean of MIC values of all bacterial strains)
# Protocol: as §2
# [12] = test system: CREC E2; assay: MIC, broth dilution; type: cell-based, carbapenem-resistant E. coli; conditions: read-out: Minimal Inhibitory Concentration (MIC)
# Source text: as §1, §2
# [13] = test system: CREC E1; assay: MIC, broth dilution; type: cell-based, carbapenem-resistant E. coli; conditions: read-out: Minimal Inhibitory Concentration (MIC)
# Source text: as §1, §2
# [14] = test system: CRAB C1; assay: microbe, parasite or virus in culture; conditions: for MIC: Acinetobacter baumannii, read-out: Minimal Inhibitory Concentration (MIC)
# Source text: as §1, §2
# [15] = test system: CRAB C8; assay: microbe, parasite or virus in culture; conditions: for MIC: Acinetobacter baumannii, read-out: Minimal Inhibitory Concentration (MIC)
# Source text: as §1, §2
# [16] = test system: K. pneumoniae; assay: microbe, parasite or virus in culture; conditions: 16 h; for MIC: Klebsiella pneumoniae, read-out: Minimal Inhibitory Concentration (MIC)
# Source text: as §1, §2
# [17] = test system: P. aeruginosa; assay: MIC, broth dilution; type: cell-based, Pseudomonas aeruginosa KCCM 11328; conditions: Pseudomonas aeruginosa, 16 h, MH media, read-out: Minimal Inhibitory Concentration (MIC)
# Source text: as §1, §2
# [18] = test system: CRKP K2; assay: MIC, broth dilution; type: cell-based, carbapenem-resistant K. pneumoniae; conditions: read-out: Minimal Inhibitory Concentration (MIC)
# Source text: as §1, §2
# [19] = test system: CRKP K1; assay: MIC, broth dilution; type: cell-based, carbapenem-resistant K. pneumoniae; conditions: read-out: Minimal Inhibitory Concentration (MIC)
# Source text: as §1, §2
# [20] = test system: A. baumannii; assay: MIC, broth dilution; type: cell-based, Acinetobacter baumannii KCCM 40203; conditions: 16 h, MH media, read-out: Minimal Inhibitory Concentration (MIC)
# Source text: as §1, §2
# [21] = test system: E. coli; assay: MIC, broth dilution; type: cell-based, Escherichia coli KCTC 1682; conditions: Escherichia coli, 16 h, read-out: Minimal Inhibitory Concentration (MIC)
# Source text: as §1, §2
# [22] = test system: intact CRAB C0; assay: Depolarization of intact CRAB C0 (diSC3-5); type: cell-based, carbapenem-resistant A. baumannii; conditions: 4 μM
# Protocol: (§3) The depolarization capacity by peptides were measured by using a membrane potential sensitive dye 3,3′-dipropylthiadicarbocyanine iodide (diSC3-5) as previously described using intact CRAB C0. Briefly, CRAB C0 cells were washed using wash buffer (5 mM HEPES, 20 mM glucose, pH 7.4). The cells were resuspended in dilution buffer (5 mM HEPES, 20 mM glucose, 0.1 M KCl, pH 7.4) and then incubated with diSC3-5 dye (1 h). In parallel, spheroplasts of CRAB C0 cells (contains plasma membrane and peptidoglycans) were prepared by damaging outer membrane using osmotic shock, as described previously. Finally, varying concentrations of peptide treated cells, negative control (cells with dye) and positive control (1% triton X-100) were recorded for change in fluorescence using fluorescent spectrophotometer and expressed as percent depolarization.
# [23] = test system: CRAB C0 spheroplasts; assay: Cytoplasmic membrane depolarization of CRAB C0 spheroplasts (diSC3-5); type: cell-based, carbapenem-resistant A. baumannii; conditions: 4 μM
# Protocol: as §3
# [24] = test system: LPS; assay: Limulus amebocyte lysate (LAL) assay, LPS neutralization; type: biochemical; conditions: 1.6 μM
# Protocol: Peptide-mediated LPS neutralization was determined using LAL assay (GenScript, Piscataway, NJ, USA). Briefly, peptides 10 μL each (3.1, 6.3, 12.5, 25, and 50 μM) were allowed to interact with LPS (2 ng/mL) for 10 min at 37 °C. LL-37 was used as a control. A LAL enzyme (10 μL) was added to peptide-LPS complex for 10 min followed by addition of a chromogenic substrate (5 min, 37 °C). The reaction was stopped using color substrates and the absorbance was measured at 545 nm against endotoxin standard. The endotoxin levels are expressed as endotoxin units (EU) per milliliter.
# [25] = test system: LPS (E. coli O111:B4); assay: Peptide-LPS binding, BODIPY-TR-cadaverine displacement assay; conditions: 4 μM
# Protocol: The binding abilities of the peptides with LPS was analyzed by BODIPY-TR cadaverine (BC, Thermo Fisher Scientific, Waltham, MA, USA)-displacement assay. The probe complex was prepared by mix 5 μg/mL BC with 5 μg/mL LPS (E. coli O111:B4, Sigma-Aldrich, St. Louis, MO, USA) in a 50 mM Tris buffer (pH 7.4) at room temperature for 6 h. Peptides including polymyxin B (PMB) control (1–64 μM) were allowed to interact with LPS–BC mix in a black 96-well plate for 30 min. The relative fluorescence intensity was recorded at an excitation wavelength of 580 nm and emission wavelength of 620 nm using a fluorescence microplate reader (Molecular Devices, San Jose, CA, USA).
Compound,MIC ([1]; Acinetobacter baumannii),MIC ([2]; Acinetobacter baumannii),MIC ([3]; Acinetobacter baumannii),MIC ([4]; Acinetobacter baumannii),MIC ([5]; Acinetobacter baumannii),MIC ([6]; Acinetobacter baumannii),MIC ([7]; Acinetobacter baumannii),MIC ([8]; Acinetobacter baumannii),MIC ([9]; Acinetobacter baumannii),Biofilm inhibition of CRAB C0 [10],MIC [11],MIC ([12]; Escherichia coli),MIC ([13]; Escherichia coli),MIC [14],MIC [15],MIC [16],MIC [17],MIC ([18]; Klebsiella pneumoniae),MIC ([19]; Klebsiella pneumoniae),MIC ([20]; Acinetobacter baumannii),other results
"C[C@@H](O)[C@H]1C(=O)N2C(C(=O)O)=C(SCCN=CN)C[C@H]12 [Imipenem, reference compound]",128 µM,128 µM,128 µM,> 128 µM,> 128 µM,> 128 µM,128 µM,128 µM,> 128 µM,unable to inhibit,90.3 µM,16 µM,> 128 µM,> 128 µM,> 128 µM,< 0.25 µM,1 µM,> 128 µM,32 µM,1 µM,MIC [21]: 0.5 µM
"CC[C@H](C)[C@H](NC(=O)CN)C(=O)NCC(=O)N[C@@H](C)C(=O)N[C@H](C(=O)N[C@@H](CC(C)C)C(=O)N[C@@H](CCCCN)C(=O)N[C@H](C(=O)N[C@@H](CC(C)C)C(=O)N[C@H](C(=O)N[C@H](C(=O)NCC(=O)N[C@@H](CC(C)C)C(=O)N1CCC[C@H]1C(=O)N[C@@H](C)C(=O)N[C@@H](CC(C)C)C(=O)N[C@H](C(=O)N[C@@H](CO)C(=O)N[C@@H](Cc1c[nH]c2ccccc12)C(=O)N[C@H](C(=O)N[C@@H](CCCCN)C(=O)N[C@@H](CCCNC(=N)N)C(=O)N[C@@H](CCCCN)C(=O)N[C@@H](CCCNC(=N)N)C(=O)N[C@@H](CCC(N)=O)C(=O)N[C@@H](CCC(N)=O)C(N)=O)[C@@H](C)CC)[C@@H](C)CC)[C@@H](C)O)[C@@H](C)O)C(C)C)C(C)C [Melittin, reference compound]",,,,,,,,,,,,,,,,,,,,,"Depolarization of intact CRAB (diSC3-5) [22]: 75.6%; MIC [1]: 4 µM; MIC [2]: 4 µM; MIC [3]: 4 µM; MIC [4]: 4 µM; MIC [5]: 4 µM; MIC [6]: 4 µM; MIC [7]: 4 µM; MIC [8]: 4 µM; MIC [9]: 4 µM; MIC [12]: 8 µM; MIC [13]: 8 µM; Increase of diSC3-5 fluorescence in CRAB spheroplasts (depolarization) [23]: 67.9%; Minimal Inhibitory Concentration (MIC) ([14]; CRAB C1): 4 µM; Minimal Inhibitory Concentration (MIC) ([15]; CRAB C8): 4 µM; Minimal Inhibitory Concentration (MIC) ([16]; K. pneumoniae, MH media): 32 µM; MIC [18]: 64 µM; MIC [19]: 64 µM; MIC [20]: 4 µM"
"C[C@@H](O)[C@H]1C(=O)N2C(C(=O)O)=C(S[C@@H]3CN[C@H](C(=O)N(C)C)C3)[C@H](C)[C@H]12 [Meropenem, reference compound]",> 128 µM,> 128 µM,128 µM,> 128 µM,128 µM,> 128 µM,> 128 µM,128 µM,128 µM,unable to inhibit,91.9 µM,16 µM,> 128 µM,> 128 µM,> 128 µM,< 0.25 µM,1 µM,> 128 µM,64 µM,0.5 µM,"MIC ([21]; E. coli, MH media): 0.25 µM"
LL-37,,,,,,,,,,,,,,,,,,,,,LPS neutralization (LAL assay) [24]: 76.5%
polymyxin B [PMB],,,,,,,,,,,,,,,,,,,,,BC displacement (LPS binding) [25]: 76.6%
